Source: patent US7692011B2, “8-hydroxy and 8-mercapto quinazolinones” (Prana Biotechnology Limited, priority 2002, dated 2010)
In brackets after ≈: the same amount, converted by molar mass. Where a name gives a salt, the structure may show the parent alone. Read-outs that look alike come from different tables or passages of the source.

Tests used:
[1] = test system: Neuronal cortical cells treated with Aβ1-42; assay: Assay 3(c) Aβ neurotoxicity and Aβ neuroprotection (MTS); assay type: cell-based, mouse; details: 20 uM Aβ1-42, 4 days
Description: Primary Cortical Neuronal Cultures
Cortical cultures were prepared as previously described (White et al., 1998). Embryonic day 14 BL6Jx129sv mouse cortices were removed, dissected free of meninges and dissociated in 0.025% (wt/vol) trypsin. Dissociated cells were plated in 48 well culture plates at a density of 2×10^6 cells/mL in MEM with 25% (vol/vol) FCS and 5% (vol/vol) HS and incubated at 37° C., 2 hrs. Media was then replaced with Neurobasal media (Invitrogen Life Technologies) and B27 supplements (Invitrogen Life Technologies). Cultures were maintained at 37° C. in 5% CO2. Prior to experimentation, the culture medium was replaced with Neurobasal media and B27 minus antioxidants (Invitrogen Life Technologies).
(c) Assay for Aβ Neurotoxicity and Aβ Neuroprotection
Neuronal cortical cells were cultured for five days as per Assay 2. On day six the neurobasal (NB) media (Invitrogen Life Technologies) and B27 supplement (Invitrogen Life Technologies) were replaced with NB media and B27 supplement (no antioxidants). On day six, test compounds were individually added to the neuronal cell cultures:
(§1) The test compounds were dissolved in 100% DMSO to a concentration of 2.5 mM (10 mM if excess compound was weighed out per vial—then diluted to 2.5 mM). 2.5 mM stock solution was serially diluted 1 in 10 to give working solutions of 250 uM, 25 uM, 2.5 uM.
Aβ was initially dissolved in 20 mM NaOH to a concentration of 1 mM and sonicated for 5 minutes. The peptide was then diluted in H2O and 10×PBS to a final concentration of 200 uM Aβ in 1×PBS. The peptide was again sonicated for 5 minutes and then spun at 14000 rpm for 5 min and transferred to a fresh tube.
as §1, with “in 10 [in NB media and B27 (no antioxidants)] to give” for “in 10 to give”, “2.5 uM. Test compounds were not added directly to cells, instead they were added to a 48 well ‘Drug Plate’ as comprised below:” for “2.5 uM.”
Preparation of “Drug Plate”:
• Well 1: 515 ul NB+B27(no antioxidant)*+24 ul 25 uM test compound+60 ul Aβ diluent** • Well 2: 515 ul NB+B27(no antioxidant)+24 ul 250 uM test compound+60 ul Aβ diluent • Well 3: 515 ul NB+B27(no antioxidant)+24 ul test compound diluent***+60 ul Aβ1-42 • Well 4: 515 ul NB+B27(no antioxidant)+24 ul 2.5 uM test compound+60 ul Aβ1-42 • Well 5: 515 ul NB+B27(no antioxidant)+24 ul 25 uM test compound+60 ul Aβ1-42 • Well 6: 515 ul NB+B27(no antioxidant)+24 ul 250 uM test compound+60 ul […] • Well 7: 515 ul NB+B27(no antioxidant)+24 ul test compound diluent+60 ul Aβ1-42 diluent • Well 8: 600 ul NB+B27(no antioxidant) • N.B. 60 ul Aβ1-42 equals 20 ul Aβ1-42 per well equals 20 uM Aβ1-42
The Drug Plate was incubated at 37° C. for 15 mins. 200 ul of each well was added in triplicate to the corresponding cell plate. The cell plate was incubated at 37 C, for 4 days. • * NB media+B27 (no antioxidants), • ** Aβ diluent 2 mM NaOH, 1×PBS • *** PBT diluent 10% DMSO in NB+B27(no antioxidant) Completion of the Assay:
On the 4th day after treating the cells the assay is completed by adding MTS to the cells.

[2] = Phase II clinical trial: therapeutic drug monitoring, blood levels by HPLC; assay type: in vivo; details: human, oral, read-out: Steady state pre-dose blood level
Description: (§2) Study design: The study was a double blind, placebo-controlled, parallel group randomized design. […] The duration of the study was 36 weeks.

[3] = Phase II clinical trial: plasma metal levels (ICP-MS); assay type: in vivo, human; details: AD patients, oral
Description: as §2
Blood samples were collected by antecubital venepuncture except on weeks 12, 24 and 36 when they were collected by an indwelling catheter. […] Zn data from these intervals were therefore omitted from analysis.
Outcome measures: The primary clinical efficacy variable was a change from baseline score on the ADAS-cog conducted at baseline and at weeks 4, 12, 24 and 36. This measure was chosen to allow comparability of treatment effects with current therapeutics such as donepezil, where efficacy trials also used ADAS-cog as their primary outcome measure (Rogers et al., 1998). Although numerous neuropsychological tests could be considered as secondary measures, it was necessary to avoid fatiguing the subjects at review. Therefore the only other cognitive test was the Mini-Mental State Exam (MMSE). The CIBIC+ (clinician interview based impression of change incorporating caregiver information), a subjective observational index was also conducted. Plasma Aβ, and plasma zinc and copper were all taken every four weeks.
Metal levels: Metals were measured by inductively coupled plasma mass spectrometry as previously described (Cherny et al., 2001).

[4] = test system: moderately severe AD patients; assay: Phase II clinical trial in Alzheimer's disease: cognition (ADAS-cog); assay type: in vivo, human; details: more-severely affected groups
Description: The performance of the less-severely affected group (ADAS-cog<25) deteriorated negligibly over this interval, so cognitive changes could not be discriminated in this stratum.
Study population: The study took place at the AD clinical trials unit, Mental Health Research Institute of Victoria and at the Royal Melbourne Hospital. Criteria for inclusion in the study were: informed consent; a diagnosis of probable AD by NINCDS-ADRDA criteria (McKhann et al., 1984); AD Assessment Scale-cognitive (ADAS-cog) (Rosen et al., 1984) score of 18-45; Mini Mental State Examination (MMSE) (Folstein et al., 1975) score of 10-24; on donepezil 5 mg or 10 mg for at least 6 months; relative or carer willing and able to support the trial; able to complete trial examinations; primary sensorial functions intact.
as §2
Outcome measures: The primary clinical efficacy variable was a change from baseline score on the ADAS-cog conducted at baseline and at weeks 4, 12, 24 and 36. […]
Data preparation and statistical analysis: Data monitoring and management were undertaken by independent contractors (Kendle International and Health Research Solutions, Melbourne). […] Differences between groups on categorical measures were analysed using exact statistical methods in order to maximise power. […]

[5] = molecular target: T1, Aβ 1-42 (Homo sapiens, UniProt P05067); assay: Assay 1 Fluorometric H2O2 assay: inhibition of hydrogen peroxide generation by Aβ in the presence of copper; assay type: biochemical; details: Aβ 1-42 with Cu-Gly, DCF fluorescence
T1 construct: The reaction solutions contained Aβ 1-42
T1 sequence (P05067 672-713 limits assumed): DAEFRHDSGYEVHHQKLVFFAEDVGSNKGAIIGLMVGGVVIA
Description: Assay 1. Fluorometric H2O2 Assay
A fluorometric assay was used to test the ability of a test compound to inhibit hydrogen peroxide generation by Aβ in the presence of copper based on dichlorofluoroscein diacetate (DCF; Molecular Probes, Eugene Oreg.). The DCF solution (5 mM) in 100% dimethyl sulphoxide (previously purged with argon for 1 hr at 20° C.) was deacetylated in the presence of 0.025M NaOH for 30 min and neutralised at pH 7.4 to a final concentration of 1 mM. Horseradish peroxidase ([…]) stock solution was prepared to 1 μM at pH 7.4. The reactions were carried out in PBS, pH 7.4 in a 96 well plate (total volume=250 μl/well). The reaction solutions contained Aβ 1-42 at concentrations in the range of 50 nM to 1 μM, copper-glycine chelate (Cu-Gly), was prepared by adding CuCl2 to glycine in the ratio of 1:6 and added to the Aβ in the proportion 2Cu-Gly: 1Aβ), reducing agents including dopamine (5 μM) or ascorbic acid, deacetylated DCF 100 μM, and HRP, 0.1 μM. 1-10 μM EDTA or another chelator may also be present as a control for free copper, but was not required for the assay to function. The reaction mixture was incubated at 37 C for 60 min. Catalase (4000 units/ml) and H2O2 (1-2.5 μM) standards in PBS pH 7.4 may be included as positive controls. Fluorescence was recorded using a plate reader with excitation and emission filters at […] respectively. H2O2 concentration may be established by comparing fluorescence with the H2O2 standards. Inhibition of Aβ H2O2 production was assayed by including a given concentration of test compound(s) in the test wells.

[6] = Assay 12 Turbidimetric solubility measurements; assay type: physicochemical; details: kinetic from dmso stock, nephelometry
Description: Turbidimetric Solubility Measurements
The solubility estimate was measured at both pH 2.0 and pH 6.5. This is within the pH range that can be anticipated along the proximal gastrointestinal tract in humans.
The compounds were dissolved in DMSO to appropriate concentrations and then spiked into either 0.01M HCl (approx. pH=2.0) or pH 6.5 isotonic phosphate buffer, the final DMSO concentration being 1%. Samples were then analysed via Nephelometry to determine a solubility range. [as per D. Bevan and R. S. Lloyd, Anal. Chem. 2000, 72, 1781-1787].

[7] = aqueous buffer, pH 6.5 isotonic phosphate buffer, 1% DMSO, read-out: Assay 12 Solubility at pH 6.5
[8] = simulated gastric fluid, 0.01 M HCl, pH 2.0, 1% DMSO, read-out: Assay 12 Solubility in 0.01 M HCl, pH 2.0

IC50 [5] [nM]	SMILES	Assay 3(c) Neuroprotection (% inhibition of Abeta toxicity) [1] [%]	further results
900	COC(=O)c1nc(Cl)c2cccnc2c1O [PBT-1045, 5-chloro-8-hydroxy-[1,6]naphthyridine-7-carboxylic acid methyl ester]	12	
750	O=c1c2c(Cl)cc(Cl)c(O)c2ncn1-c1ccc(F)cc1 [PBT-1055, 5,7-Dichloro-3-(4-fluorophenyl)-8-hydroxy-3H-quinazolin-4-one]	29	solubility [6, 7]: 3 to 6.3 µg/mL (≈ 9.23 to 19.4 µM); solubility [6, 8]: 3 to 6.3 µg/mL (≈ 9.23 to 19.4 µM)
600	O=c1c(-c2ccc(Cl)cc2)cnc2c(O)cccn12 [PBT-1069, 3-(4-chlorophenyl)-9-hydroxypyrido[1,2-a]pyrimidin-4-one]		

Continued, compound first:

SMILES	IC50 [5] [nM]	Assay 3(c) Neuroprotection (% inhibition of Abeta toxicity) [1] [%]	further results
Cc1cnc2c(Cl)cc(Cl)c(O)c2n1 [PBT 1064, 6,8-Dichloro-3-methylquinoxalin-5-ol]		29	
Oc1c(I)cc(Cl)c2cccnc12 [PBT-1, iodochlorohydroxyquinoline]			concentration at 12 weeks ([2]; 250 mg/day, total daily dosage 250 mg): 4030 ± 2100 ng/mL; concentration at 24 weeks ([2]; 500 mg/day, total daily dosage 500 mg): 6740 ± 3700 ng/mL; concentration at 36 weeks ([2]; 750 mg/day, total daily dosage 750 mg): 7600 ± 2150 ng/mL; Effect on plasma Cu [3]: no effect; Elevation of total plasma Zn [3]: ≈ 30%; Difference in mean change from baseline ADAS-cog score over placebo ([4]; week 24): 7.37 (95% CI: 1.51-13.24); Difference in mean change from baseline ADAS-cog score over placebo ([4]; week 36): 6.36 (95% CI: −0.50-13.23)
O=c1ccnc2c(O)cccn12 [PBT-1048, 9-hydroxypyrido[1,2-a]pyrimidin-4-one]	350	22	
O=c1[nH]cnc2c(O)cccc12 [PBT-1049, 8-hydroxy-3H-quinazolin-4-one]	1600	11	
Cc1cnc2c(O)c(Cl)cc(Cl)c2n1 [PBT-1065, 6,8-Dichloro-2-methylquinoxalin-5-ol]		7	
CN(C)Cc1cnc2c(Cl)cc(Cl)c(O)c2n1 [PBT-1066, 6,8-Dichloro-3-(dimethylaminomethyl)quinoxalin-5-ol hydrochloride]			solubility [6, 7]: > 100 µg/mL; solubility [6, 8]: > 100 µg/mL
O=c1[nH]cnc2c(O)c(Cl)cc(Cl)c12 [PBT-1067, 5,7-Dichloro-8-hydroxy-3H-quinazolin-4-one]	950		solubility [6, 7]: 25 to 50 µg/mL (≈ 108 to 216 µM); solubility [6, 8]: 12.5 to 25 µg/mL (≈ 54.1 to 108 µM)
CNCc1ccc2cnc(C(=O)NCc3ccc(F)cc3)c(O)c2n1 [PBT-1070]	1140		
